PubChem BioAssay (NCI)
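Step 1: Grow cells in 96-well plates. Step 2: Expose to compound for 48 hours at 5 concentrations. Step 3: Interpolate endpoints linearly; if unreached, use highest concentration. TGI: total growth inhibition.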

System: XF 498 CNS
Assay: growth of human tumour cells (NCI), 48 h

## CCOC(=O)c1cc(Cl)ccc1OC(N)=O
  TGI: > 100 µM
